Test [1] concerns the target T1, Human recombinant MKlp2 motor domain1-519, His tagged (Homo sapiens, UniProt O95235).
T1 construct: Human recombinant MKlp2 motor domain1-519, His tagged; His; purchased Cytoskeleton MP05
T1 sequence (O95235 1-519): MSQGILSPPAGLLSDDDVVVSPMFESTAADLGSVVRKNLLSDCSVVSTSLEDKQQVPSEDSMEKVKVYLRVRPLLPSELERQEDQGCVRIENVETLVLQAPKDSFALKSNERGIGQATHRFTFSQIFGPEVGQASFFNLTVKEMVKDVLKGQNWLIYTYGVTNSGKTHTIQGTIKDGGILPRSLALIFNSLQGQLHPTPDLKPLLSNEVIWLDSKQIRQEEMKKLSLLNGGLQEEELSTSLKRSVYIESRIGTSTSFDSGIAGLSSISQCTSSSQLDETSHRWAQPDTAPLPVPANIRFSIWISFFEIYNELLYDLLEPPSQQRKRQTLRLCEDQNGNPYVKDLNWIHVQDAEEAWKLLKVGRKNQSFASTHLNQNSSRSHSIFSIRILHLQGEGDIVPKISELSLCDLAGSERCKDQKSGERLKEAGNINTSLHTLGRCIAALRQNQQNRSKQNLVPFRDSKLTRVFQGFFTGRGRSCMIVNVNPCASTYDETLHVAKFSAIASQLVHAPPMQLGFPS
Kind of test: Microtubule stimulated ATPase activity of the MKlp2 motor domain (Kinesin ELIPA Assay Kit). Type of test: biochemical. As to conditions: read-out: MKIp2 IC50. As to the method: Evaluation of Inhibitory Effects on the Microtubule Stimulated ATPase Activity of the MKlp2 Motor Domain.
MKlp2 ATPase activity was measured by monitoring real time free phosphate generation using the Kinesin ELIPA Assay Kit. The assay is based upon an absorbance shift (330 nm-360 nm) that occurs when 2-amino-6-mercapto-7-methylpurine ribonucleoside (MESG) is catalytically converted to 2-amino-6-mercapto-7-methylpurine in the presence of inorganic phosphate (Pi). One molecule of Pi will yield one molecule of 2-amino-6-mercapto-7-methylpurine in an essentially irreversible reaction.
All experiments were performed at 22° C.
Condition 1, compound preparation.
The compounds were dissolved in DMSO at 30× the maximum concentration to be tested. […] DMSO solutions were pipetted directly into each well.
Condition 2, reaction's “motor mix”.
The following were mixed sequentially in the specified order at RT to obtain the “motor mix”.
20 mL: 15 mM Pipes-NaOH pH 7.0, 10 mM MgCl2, 30 μM Tx (Buffer 1).
10 mL: 5× MSEG (ELIPA 1 reagent, Cat. # BK051).
10 mL: 2.5 mg/mL porcine brain microtubules (3×10 mg Cat. # MT002-XL resuspended in 12 mL of Buffer 1).
0.5 mL: 100×PNP (ELIPA 2 reagent, cat. # BK051).
Condition 3, reaction initiation.
The motor mix was pipetted into each well to obtain 80% of total volume. The reaction was initiated by adding a 20% of total volume of 5 mM ATP into each well.
The reactions were measured in a SpectraMax M2 (Molecular Devices) set in kinetic mode and 360 nm absorbance wavelength. The start protocol was 5 second rapid circular mixing, 21 readings, 30 seconds apart.

The next test has as its system K562 cells. Kind of test: Cytotoxicity on human cancer cells (WST-1), K562. The note with it: WST-1 on D4, read-out: K562 IC50. Type of test: cell-based. As to the method: Evaluation of Cytotoxicity Effects on Human Cancer Cells
The effects of the compounds of the invention on the viability of human cancer cells were studied on various human cancer cell lines of differing tissue origins (A549, NCI-H460: lung cancer; MDA-MB-231: breast cancer; HCT-116, HT-29: colon cancer; MIA-PaCa-2: pancreatic cancer; K562: leukaemia). All cell lines were obtained from ATCC or ECACC. Cells were cultured in the culture media described below, under a 37° C., 5% CO2 humidified atmosphere, according to a standard operating procedure.
On D0, the cells were plated in 90 μl in 96 wells plates at densities ranging from 500 to 5,000 cells per well.
Following addition of the test substance the cells were protected from light. The solvents (DMSO and specific control solvent were added at the maximal concentration: 10 μl/well (3 wells/condition)).
On D4, the Cell Proliferation Reagent WST-1 was added to each well (10 μl/well), according to a standard operating procedure. The cells were then incubated for 30 min to 4 h at 37° C.-5% CO2. After these incubations, the 96-well plates were shaken thoroughly for 1 min with Multiskan® EX apparatus (Thermo Labsystems, France). The absorbence was measured at 450 nm, the reference wavelength being 620 nm. The analysis of the results was performed with the Ascent software 2.6 (Thermo Labsystems, France), Microsoft Excel 2003 and GraphPad Prism 4.03 softwares to give the concentration of the compounds that induces the death of 50% of the cells (IC50).
For orientation: Formazan colour is commonly taken as a measure of viable cells.

Setting [2] is: Table 6 (prodrugs, formula II), K562 cells.

Structures are written as SMILES. Structures can show the parent of a compound that is named as a salt. Where two headings read alike, the source gives them in different places. Where only a bound is given, the exact number is not on record here.

Broadly, the IC50 is the concentration that gives 50% inhibition.

Regarding `COc1ccc(C#N)cc1/C=C(\C#N)c1cn(C(=O)[C@H](N)CCCCN)c2ccc(Br)cc12` [Example 76, (R,Z)-3-(2-(5-bromo-1-(2,6-diaminohexanoyl)-1H-indol-3-yl)-2-cyanovinyl)-4-methoxybenzonitrile dihydrochloride], the IC50 amounted to 1300 nM in test [1] (Table 6 (prodrugs, formula II)) and 40 nM in the test on K562 cells (setting [2]).
Take `COc1cc[n+]([O-])cc1/C=C(\C#N)c1c[nH]c2ccc(Cl)cc12` [Example 49, (Z)-3-(2-(5-chloro-1H-indol-3-yl)-2-cyanovinyl)-4-methoxypyridine 1-oxide]: the IC50 in test [1] (Table 3, 22° C.) is 560 nM; in the test on K562 cells (Table 4, K562 leukaemia cells) it was 9230 nM.
Consider `COc1ccncc1/C=C(\C#N)c1cn(C(=O)C(C)(C)C)c2ccc(Br)cc12` [Example 57, (Z)-2-(5-bromo-1-pivaloyl-1H-indol-3-yl)-3-(4-methoxypyridin-3-yl)acrylonitrile], for which the IC50 in test [1] (Table 6 (prodrugs, formula II)) amounted to 20000 nM; in the test with K562 cells (setting [2]) it was 200 nM.
Take `COc1ccc2[nH]cc(/C(C#N)=C/c3cnccc3OC)c2c1` [Example 12, (Z)-2-(5-methoxy-1H-indol-3-yl)-3-(4-methoxypyridin-3-yl)acrylonitrile]: the IC50 came to 300 nM in test [1] (Table 3, 22° C.) and 900 nM in the test with K562 cells (Table 4, K562 leukaemia cells).
Taken in the same sequence, the figures for `N#C/C(=C\c1cnccc1-c1ccoc1)c1c[nH]c2ccc(Cl)cc12` [Example 29, (Z)-2-(5-chloro-1H-indol-3-yl)-3-(4-(furan-3-yl)pyridin-3-yl)acrylonitrile] were 30 nM and 4700 nM.
Consider `COc1ccc(C#N)cc1/C=C(\C#N)c1cn(C(=O)C2CCC(=O)N2)c2ccc(Br)cc12` (centres unmarked) [Example 75, (Z)-3-(2-(5-bromo-1-(5-oxopyrrolidine-2-carbonyl)-1H-indol-3-yl)-2-cyanovinyl)-4-methoxybenzonitrile], for which the IC50 turned out to be 4600 nM in test [1] (Table 6 (prodrugs, formula II)) and 20 nM in the test with K562 cells (setting [2]).
The corresponding values for `COc1ccc(C#N)cc1/C=C(\C#N)c1cn(C(=O)CN)c2ccc(Br)cc12` [Example 71, (Z)-3-(2-(1-(2-aminoacetyl)-5-bromo-1H-indol-3-yl)-2-cyanovinyl)-4-methoxybenzonitrile hydrochloride] are 1900 nM and 10 nM.
Taken in the same sequence, the figures for `COc1ccc(C#N)cc1/C=C(\C#N)c1cn(C(=O)CCC(NC(=O)OC(C)(C)C)C(=O)OC(C)(C)C)c2ccc(Br)cc12` (stereo in doubt) [Example 66, (R,Z)-tert-butyl-5-(5-bromo-3-(1-cyano-2-(5-cyano-2-methoxyphenyl)vinyl)-1H-indol-1-yl)-2-(tert-butoxycarbonylamino)-5-oxopentanoate] were 5400 nM and 30 nM.
Taken in the same sequence, the figures for `COc1ccc(C#N)cc1/C=C(\C#N)c1cn(C(C)=O)c2ccc(Br)cc12` [Example 56, (Z)-3-(2-(1-acetyl-5-bromo-1H-indol-3-yl)-2-cyanovinyl)-4-methoxybenzonitrile] were 16700 nM and 250 nM.
As for `CSc1ccncc1/C=C(\C#N)c1c[nH]c2ccc(Br)cc12` [Example 15, (Z)-2-(5-bromo-1H-indol-3-yl)-3-(4-(methylthio)pyridin-3-yl)acrylonitrile], the IC50 in test [1] (Table 3, 22° C.) amounted to 200 nM; in the test with K562 cells (Table 4, K562 leukaemia cells) it was 2900 nM.
Take `COc1ccc(C#N)cc1/C=C(\C#N)c1cn(C(=O)CC(N)C(=O)OCc2ccccc2)c2ccc(Br)cc12` (stereo in doubt) [Example 67, (R,Z)-benzyl-2-amino-4-(5-bromo-3-(1-cyano-2-(5-cyano-2-methoxyphenyl)vinyl)-1H-indol-1-yl)-4-oxobutanoate]: the IC50 in test [1] (Table 6 (prodrugs, formula II)) came to 3100 nM; in the test with K562 cells (setting [2]), 40 nM.
Taken in the same sequence, the figures for `COc1ccc(C#N)cc1/C=C(\C#N)c1cn(C(=O)CN2CCN(C)CC2)c2ccc(Br)cc12` [Example 68, (Z)-3-(2-(5-bromo-1-(2-(4-methylpiperazin-1-yl)acetyl)-1H-indol-3-yl)-2-cyanovinyl)-4-methoxybenzonitrile] were greater than 50000 nM and 30 nM.
Consider `N#C/C(=C\c1cnccc1-c1ccoc1)c1c[nH]c2ccc(Br)cc12` [Example 34, (Z)-2-(5-bromo-1H-indol-3-yl)-3-(4-(furan-3-yl)pyridin-3-yl)acrylonitrile], for which the IC50 in test [1] (Table 3, 22° C.) was 70 nM; in the test with K562 cells (Table 4, K562 leukaemia cells), 2200 nM.
The corresponding values for `N#C/C(=C/c1cnccc1-c1ccoc1)c1c[nH]c2ccc(Br)cc12` [Example 34b, (E)-2-(5-bromo-1H-indol-3-yl)-3-(4-(furan-3-yl)pyridin-3-yl)acrylonitrile] are 960 nM and 14300 nM.
In the case of `COc1ccc(C#N)cc1/C=C(\C#N)c1cn(C(=O)CN2CCNCC2)c2ccc(Br)cc12` [Example 72, (Z)-3-(2-(5-bromo-1-(2-(piperazin-1-yl)acetyl)-1H-indol-3-yl)-2-cyanovinyl)-4-methoxybenzonitrile Hydrochloride], the half-inhibitory concentration (IC50) in test [1] (Table 6 (prodrugs, formula II)) was greater than 50000 nM; in the test with K562 cells (setting [2]) it was 10 nM.
`N#C/C(=C\c1c[n+]([O-])ccc1-c1ccoc1)c1c[nH]c2ccc(Br)cc12` [Example 48, (Z)-3-(2-(5-bromo-1H-indol-3-yl)-2-cyanovinyl)-4-(furan-3-yl)pyridine-1-oxide]: the IC50 in test [1] (Table 3, 22° C.) is 730 nM; in the test with K562 cells (Table 4, K562 leukaemia cells), 6710 nM.
`COCCOCCOCC(=O)n1cc(/C(C#N)=C/c2cc(C#N)ccc2OC)c2cc(Br)ccc21` [Example 73, (Z)-3-(2-(5-bromo-1-(2-(2-(2-methoxyethoxy)ethoxy)acetyl)-1H-indol-3-yl)-2-cyanovinyl)-4-methoxybenzonitrile]: the IC50 is greater than 50000 nM in test [1] (Table 6 (prodrugs, formula II)) and 30 nM in the test on K562 cells (setting [2]).
As for `CCN(CC)c1ccncc1/C=C(\C#N)c1c[nH]c2ccc(Br)cc12` [Example 24, (Z)-2-(5-bromo-1H-indol-3-yl)-3-(4-(diethylamino)pyridin-3-yl)acrylonitrile], the IC50 was 1100 nM in test [1] (Table 3, 22° C.) and 3100 nM with K562 cells (Table 4, K562 leukaemia cells).
The corresponding values for `N#C/C(=C\c1cnccc1Cl)c1c[nH]c2ccc(Br)cc12` [Example 4, (Z)-2-(5-bromo-1H-indol-3-yl)-3-(4-chloropyridin-3-yl)acrylonitrile] are 700 nM and 1400 nM.

(Values after patent publication US10189782B2, “Derivatives of indole for the treatment of cancer, viral infections and lung diseases” (BIOKINESIS, priority 2012, dated 2019).)
